Data published in ChEMBL document CHEMBL5724914, “Linking interpersonal differences in gut microbiota composition and drug biotransformation activity” (2024).

assay: (§1) The drug is tested on Z-021 corresponding to metagenome with ENA study accession number: PRJEB37062 and ENA sample accession number: ERS12561820 for biotransformation under anaerobic condition. The drug concentrations were measured over 9 timepoints collected between 0 and 24 hours of incubation by liquid-chromatography-coupled mass spectrometry (LC–MS); conditions: 2 µM
Further: call rule not given here.

Row | Bacterial Biotransformation | Structure (SMILES)
1 | Compound NOT metabolized | COc1cc(NC(C)CCCN)c2ncccc2c1.O=P(O)(O)O.O=P(O)(O)O (stereo not given) [PRIMAQUINE PHOSPHATE]
2 | Compound metabolized | CC(=O)OCC(=O)NCCCOc1cccc(CN2CCCCC2)c1 [ROXATIDINE ACETATE]
3 | Compound NOT metabolized | CCCCCNC(=N)N/N=C/c1c[nH]c2ccc(OC)cc12.O=C(O)/C=C\C(=O)O [TEGASEROD MALEATE]

assay: (§2) The drug is tested on Z-019 corresponding to rat gut metagenome with ENA study accession number: PRJEB37062 and ENA sample accession number: ERS12561818 for biotransformation under anaerobic condition. The drug concentrations were measured over 9 timepoints collected between 0 and 24 hours of incubation by liquid-chromatography-coupled mass spectrometry (LC–MS); conditions: 2 µM

Row | Bacterial Biotransformation | Structure (SMILES)
4 | Compound NOT metabolized | COc1cc(NC(C)CCCN)c2ncccc2c1.O=P(O)(O)O.O=P(O)(O)O (stereo not given) [PRIMAQUINE PHOSPHATE]
5 | Compound NOT metabolized | CC(=O)OCC(=O)NCCCOc1cccc(CN2CCCCC2)c1 [ROXATIDINE ACETATE]
6 | Compound NOT metabolized | CCCCCNC(=N)N/N=C/c1c[nH]c2ccc(OC)cc12.O=C(O)/C=C\C(=O)O [TEGASEROD MALEATE]

assay: as §2, with “on Z-018” for “on Z-019”, “to pig” for “to rat”, “number: ERS12561817” for “number: ERS12561818”; conditions: 2 µM

Row | Bacterial Biotransformation | Structure (SMILES)
7 | Compound NOT metabolized | COc1cc(NC(C)CCCN)c2ncccc2c1.O=P(O)(O)O.O=P(O)(O)O (stereo not given) [PRIMAQUINE PHOSPHATE]
8 | Compound metabolized | CC(=O)OCC(=O)NCCCOc1cccc(CN2CCCCC2)c1 [ROXATIDINE ACETATE]
9 | Compound NOT metabolized | CCCCCNC(=N)N/N=C/c1c[nH]c2ccc(OC)cc12.O=C(O)/C=C\C(=O)O [TEGASEROD MALEATE]

assay: as §2, with “on Z-017” for “on Z-019”, “to mouse” for “to rat”, “number: ERS12561816” for “number: ERS12561818”; conditions: 2 µM

Row | Bacterial Biotransformation | Structure (SMILES)
10 | Compound NOT metabolized | COc1cc(NC(C)CCCN)c2ncccc2c1.O=P(O)(O)O.O=P(O)(O)O (stereo not given) [PRIMAQUINE PHOSPHATE]
11 | Compound metabolized | CC(=O)OCC(=O)NCCCOc1cccc(CN2CCCCC2)c1 [ROXATIDINE ACETATE]
12 | Compound NOT metabolized | CCCCCNC(=N)N/N=C/c1c[nH]c2ccc(OC)cc12.O=C(O)/C=C\C(=O)O [TEGASEROD MALEATE]

assay: as §2, with “Z-014” for “Z-019”, “ERS12561814” for “ERS12561818”; conditions: 2 µM

Row | Bacterial Biotransformation | Structure (SMILES)
13 | Compound NOT metabolized | COc1cc(NC(C)CCCN)c2ncccc2c1.O=P(O)(O)O.O=P(O)(O)O (stereo not given) [PRIMAQUINE PHOSPHATE]
14 | Compound metabolized | CC(=O)OCC(=O)NCCCOc1cccc(CN2CCCCC2)c1 [ROXATIDINE ACETATE]
15 | Compound NOT metabolized | CCCCCNC(=N)N/N=C/c1c[nH]c2ccc(OC)cc12.O=C(O)/C=C\C(=O)O [TEGASEROD MALEATE]

assay: as §1, with “Z-010” for “Z-021”, “ERS12561810” for “ERS12561820”; conditions: 2 µM

Row | Bacterial Biotransformation | Structure (SMILES)
16 | Compound NOT metabolized | COc1cc(NC(C)CCCN)c2ncccc2c1.O=P(O)(O)O.O=P(O)(O)O (stereo not given) [PRIMAQUINE PHOSPHATE]
17 | Compound metabolized | CC(=O)OCC(=O)NCCCOc1cccc(CN2CCCCC2)c1 [ROXATIDINE ACETATE]
18 | Compound metabolized | CCCCCNC(=N)N/N=C/c1c[nH]c2ccc(OC)cc12.O=C(O)/C=C\C(=O)O [TEGASEROD MALEATE]

assay: as §1, with “Z-005” for “Z-021”, “ERS12561805” for “ERS12561820”; conditions: 2 µM

Row | Bacterial Biotransformation | Structure (SMILES)
19 | Compound NOT metabolized | COc1cc(NC(C)CCCN)c2ncccc2c1.O=P(O)(O)O.O=P(O)(O)O (stereo not given) [PRIMAQUINE PHOSPHATE]
20 | Compound metabolized | CC(=O)OCC(=O)NCCCOc1cccc(CN2CCCCC2)c1 [ROXATIDINE ACETATE]
21 | Compound NOT metabolized | CCCCCNC(=N)N/N=C/c1c[nH]c2ccc(OC)cc12.O=C(O)/C=C\C(=O)O [TEGASEROD MALEATE]

assay: as §2, with “on Z-001” for “on Z-019”, “to mouse” for “to rat”, “number: ERS12561801” for “number: ERS12561818”; conditions: 2 µM

Row | Bacterial Biotransformation | Structure (SMILES)
22 | Compound NOT metabolized | COc1cc(NC(C)CCCN)c2ncccc2c1.O=P(O)(O)O.O=P(O)(O)O (stereo not given) [PRIMAQUINE PHOSPHATE]
23 | Compound metabolized | CC(=O)OCC(=O)NCCCOc1cccc(CN2CCCCC2)c1 [ROXATIDINE ACETATE]
24 | Compound NOT metabolized | CCCCCNC(=N)N/N=C/c1c[nH]c2ccc(OC)cc12.O=C(O)/C=C\C(=O)O [TEGASEROD MALEATE]

assay: as §2, with “on WLS-170” for “on Z-019”, “to human” for “to rat”, “number: ERS12561762” for “number: ERS12561818”; conditions: 2 µM

Row | Bacterial Biotransformation | Structure (SMILES)
25 | Compound NOT metabolized | COc1cc(NC(C)CCCN)c2ncccc2c1.O=P(O)(O)O.O=P(O)(O)O (stereo not given) [PRIMAQUINE PHOSPHATE]
26 | Compound metabolized | CCCCCNC(=N)N/N=C/c1c[nH]c2ccc(OC)cc12.O=C(O)/C=C\C(=O)O [TEGASEROD MALEATE]

assay: as §2, with “on WLS-090” for “on Z-019”, “to human” for “to rat”, “number: ERS12561753” for “number: ERS12561818”; conditions: 2 µM

Row | Bacterial Biotransformation | Structure (SMILES)
27 | Compound metabolized | COc1cc(NC(C)CCCN)c2ncccc2c1.O=P(O)(O)O.O=P(O)(O)O (stereo not given) [PRIMAQUINE PHOSPHATE]
28 | Compound metabolized | CC(=O)OCC(=O)NCCCOc1cccc(CN2CCCCC2)c1 [ROXATIDINE ACETATE]
29 | Compound metabolized | CCCCCNC(=N)N/N=C/c1c[nH]c2ccc(OC)cc12.O=C(O)/C=C\C(=O)O [TEGASEROD MALEATE]

assay: as §2, with “on WLS-086” for “on Z-019”, “to human” for “to rat”, “number: ERS12561752” for “number: ERS12561818”; conditions: 2 µM

Row | Bacterial Biotransformation | Structure (SMILES)
30 | Compound metabolized | CC(=O)OCC(=O)NCCCOc1cccc(CN2CCCCC2)c1 [ROXATIDINE ACETATE]
31 | Compound NOT metabolized | CCCCCNC(=N)N/N=C/c1c[nH]c2ccc(OC)cc12.O=C(O)/C=C\C(=O)O [TEGASEROD MALEATE]

assay: as §2, with “on WLS-082” for “on Z-019”, “to human” for “to rat”, “number: ERS12561751” for “number: ERS12561818”; conditions: 2 µM

Row | Bacterial Biotransformation | Structure (SMILES)
32 | Compound metabolized | COc1cc(NC(C)CCCN)c2ncccc2c1.O=P(O)(O)O.O=P(O)(O)O (stereo not given) [PRIMAQUINE PHOSPHATE]
33 | Compound metabolized | CC(=O)OCC(=O)NCCCOc1cccc(CN2CCCCC2)c1 [ROXATIDINE ACETATE]
34 | Compound metabolized | CCCCCNC(=N)N/N=C/c1c[nH]c2ccc(OC)cc12.O=C(O)/C=C\C(=O)O [TEGASEROD MALEATE]

assay: as §2, with “on WLS-039” for “on Z-019”, “to human” for “to rat”, “number: ERS12561746” for “number: ERS12561818”; conditions: 2 µM

Row | Bacterial Biotransformation | Structure (SMILES)
35 | Compound metabolized | COc1cc(NC(C)CCCN)c2ncccc2c1.O=P(O)(O)O.O=P(O)(O)O (stereo not given) [PRIMAQUINE PHOSPHATE]
36 | Compound metabolized | CC(=O)OCC(=O)NCCCOc1cccc(CN2CCCCC2)c1 [ROXATIDINE ACETATE]
37 | Compound metabolized | CCCCCNC(=N)N/N=C/c1c[nH]c2ccc(OC)cc12.O=C(O)/C=C\C(=O)O [TEGASEROD MALEATE]

assay: as §2, with “on WLS-027” for “on Z-019”, “to human” for “to rat”, “number: ERS12561744” for “number: ERS12561818”; conditions: 2 µM

Row | Bacterial Biotransformation | Structure (SMILES)
38 | Compound NOT metabolized | COc1cc(NC(C)CCCN)c2ncccc2c1.O=P(O)(O)O.O=P(O)(O)O (stereo not given) [PRIMAQUINE PHOSPHATE]
39 | Compound NOT metabolized | CCCCCNC(=N)N/N=C/c1c[nH]c2ccc(OC)cc12.O=C(O)/C=C\C(=O)O [TEGASEROD MALEATE]

conditions: human gut metagenome, 24 h, 2 µM

Row | Bacterial Biotransformation | Structure (SMILES)
40 | Compound NOT metabolized | COc1cc(NC(C)CCCN)c2ncccc2c1.O=P(O)(O)O.O=P(O)(O)O (stereo not given) [PRIMAQUINE PHOSPHATE]
41 | Compound metabolized | CC(=O)OCC(=O)NCCCOc1cccc(CN2CCCCC2)c1 [ROXATIDINE ACETATE]

conditions: human gut metagenome, 24 h, 2 µM; remark: another data set of the same source

Row | Bacterial Biotransformation | Structure (SMILES)
42 | Compound NOT metabolized | COc1cc(NC(C)CCCN)c2ncccc2c1.O=P(O)(O)O.O=P(O)(O)O (stereo not given) [PRIMAQUINE PHOSPHATE]
43 | Compound NOT metabolized | CCCCCNC(=N)N/N=C/c1c[nH]c2ccc(OC)cc12.O=C(O)/C=C\C(=O)O [TEGASEROD MALEATE]

conditions: human gut metagenome, 24 h, 2 µM; remark: another data set of the same source

Row | Bacterial Biotransformation | Structure (SMILES)
44 | Compound NOT metabolized | COc1cc(NC(C)CCCN)c2ncccc2c1.O=P(O)(O)O.O=P(O)(O)O (stereo not given) [PRIMAQUINE PHOSPHATE]
45 | Compound metabolized | CC(=O)OCC(=O)NCCCOc1cccc(CN2CCCCC2)c1 [ROXATIDINE ACETATE]
46 | Compound NOT metabolized | CCCCCNC(=N)N/N=C/c1c[nH]c2ccc(OC)cc12.O=C(O)/C=C\C(=O)O [TEGASEROD MALEATE]

conditions: human gut metagenome, 24 h, 2 µM; remark: another data set of the same source

Row | Bacterial Biotransformation | Structure (SMILES)
47 | Compound NOT metabolized | COc1cc(NC(C)CCCN)c2ncccc2c1.O=P(O)(O)O.O=P(O)(O)O (stereo not given) [PRIMAQUINE PHOSPHATE]
48 | Compound metabolized | CC(=O)OCC(=O)NCCCOc1cccc(CN2CCCCC2)c1 [ROXATIDINE ACETATE]
49 | Compound metabolized | CCCCCNC(=N)N/N=C/c1c[nH]c2ccc(OC)cc12.O=C(O)/C=C\C(=O)O [TEGASEROD MALEATE]

conditions: human gut metagenome, 24 h, 2 µM; remark: another data set of the same source

Row | Bacterial Biotransformation | Structure (SMILES)
50 | Compound metabolized | COc1cc(NC(C)CCCN)c2ncccc2c1.O=P(O)(O)O.O=P(O)(O)O (stereo not given) [PRIMAQUINE PHOSPHATE]
51 | Compound metabolized | CC(=O)OCC(=O)NCCCOc1cccc(CN2CCCCC2)c1 [ROXATIDINE ACETATE]
52 | Compound NOT metabolized | CCCCCNC(=N)N/N=C/c1c[nH]c2ccc(OC)cc12.O=C(O)/C=C\C(=O)O [TEGASEROD MALEATE]

conditions: human gut metagenome, 24 h, 2 µM; remark: another data set of the same source

Row | Bacterial Biotransformation | Structure (SMILES)
53 | Compound NOT metabolized | COc1cc(NC(C)CCCN)c2ncccc2c1.O=P(O)(O)O.O=P(O)(O)O (stereo not given) [PRIMAQUINE PHOSPHATE]
54 | Compound metabolized | CC(=O)OCC(=O)NCCCOc1cccc(CN2CCCCC2)c1 [ROXATIDINE ACETATE]
55 | Compound NOT metabolized | CCCCCNC(=N)N/N=C/c1c[nH]c2ccc(OC)cc12.O=C(O)/C=C\C(=O)O [TEGASEROD MALEATE]
